According to patent EP1363995B1, “USE OF A COMPOSITION COMPRISING N-ACETYLCYSTEINE FOR CONDITIONING STEM CELLS” (IGR ET D, priority 2000, dated 2002):

How the values were obtained:
Assay type in all cases: cell-based, human
[1] = system: cellules primaires de moelle osseuse de patients FA-A; assay: Cell count (Numération) and mortality of bone marrow cells cultured with or without NAC or Vastarel; details: for mortalité: #3 Alex, J9; for Nombre de cellules: Tableau 1
Description: (§1) Ces cellules ont été maintenues en culture avant toute transduction dans un milieu contenant de la N-acétylcystéine ajoutée dès le début de la mise en culture et pendant la durée de la culture, de sorte que la concentration finale de N-acétylcystéine est de 1 mM. Des expériences préliminaires ont porté sur des échantillons médullaires prélevés chez des enfants aplasiques juste avant le conditionnement pour greffe de moëlle allogénique. […] Même si ces cellules de moelle osseuse ont un potentiel clonogénique initial très faible, voire le plus souvent nul en l'absence d'antioxydant (2-3 CFU pour 100 000 cellules), la transduction de cellules par un gène marqueur (GFP) est mesurable de l'ordre de 2-5% cellules infectées.
La transduction des cellules de moelle osseuse non fractionnée de patients FA-A a été réalisée comme suit. […] A ce stade de la culture (correction fonctionnelle attribuée à l'expression stable du gène correcteur), les cultures ont été secrées de NAC et remises en conditions d'oxygénation normale.
(§2) Les celllules de moelle osseuse non fractionnée de patients FA-A ont été décongelées en milieu SCGM-CellGenix. Elles ont été plantées en plaque de 12 puits; plusieurs puits ont été plantés. En particulier, les puits témoins non transduits ont été cultivés en parallèle, selon les mêmes procédures. Les cultures ont été réalisées en présence de NAC à la concentration de 1 mM dès la décongélation. Du TPO a été ajouté à raison de 100 ng/ml (pendant les 24 premières heures).
(§3) De l'anti-TGFβ a été ajouté aux cellules en culture à une concentration de 10 µg/ml.
(§4) A J1 a débuté la transduction. Du surnageant viral préparé directement en milieu SCGM a été ajouté à une MOI de 5-10 particules par cellule.
(§5) A J2 et J3, la procédure a été renouvelée dans les mêmes conditions. Il est important de noter que les cellules n'ont jamais été centrifugées. Aussi, bien qu'elles aient poussé en suspension et n'aient pas été adhérentes, le milieu a simplement et délicatement été prélevé pour les 2/3 et remplacé par le surnageant frais et additionné des cytokines aux concentrations spécifiées à J1.
(§6) La NAC était toujours présente dans le milieu de culture à une concentration de 1 mM.
(§7) A J4, les cellules ont été placées en conditions de culture à long terme. La culture a été démarrée en suspension. Au fil des jours, des cellules adhérentes de type mésenchymateux sont apparues. Le milieu de culture de base a toujours été le milieu SCGM. La nature des cytokines utilisées et leur concentration ont cependant différé :
(§8) Ensuite et chaque semaine, le milieu a été renouvelé et les cellules analysées.

[2] = system: cellules primaires de moelle de patients atteints d'anémie de Fanconi; assay: Clonogenic capacity with several antioxidants or protective compounds (Figures 12 and 13)
From the text: […]

[3] = system: cellules de moelle osseuse; assay: Preliminary culture and marker-gene transduction of marrow samples from aplastic children; details: N-acétylcystéine 1 mM, hypoxie (5% 02)
Description: as §1

[4] = system: cellules primaires de moelle osseuse non fractionnée de patients FA-A; assay: Long-term culture (LTC) of NAC-conditioned, transduced cells: flow cytometry, confocal microscopy, cytospin
From the text: (§9) La transduction des cellules de moelle osseuse non fractionnée de patients FA-A a été réalisée comme suit. La procédure a été effectuée sur des cellules cultivées en hypoxie (5% 02) pendant les 28 premiers jours de la culture. A ce stade de la culture (correction fonctionnelle attribuée à l'expression stable du gène correcteur), les cultures ont été secrées de NAC et remises en conditions d'oxygénation normale.
as §2, §3, §4, §5, §6, §7, §8
Les résultats obtenus sur la correction génétique des cellules primaires de moelle osseuse non fractionnée de patients FA-A se sont affinés. […] 70% de cellules ne prenaient ni l'annexine ni l'IP à l'analyse au cytomètre de flux : il s'agissait donc de cellules vivantes et de surcroît non apoptotiques, dont le noyau était bien visible avec un rapport nucléocytoplasmique variable. • (3) Disparition de la fragilité cytoplasmique; ainsi, la réalisation de cytospin et l'observation entre lame et lamelle étaient devenues possibles. • (4) Différenciation hématopoiétique harmonieuse au fur et à mesure de la culture à long terme avec des cellules de taille variable (figure 8a) et normalisation du diamètre moyen des cellules qui passe de 5 à 10 microns entre le j1 et j70 (confocal et FACS). Le phénotypage des cellules analysées au cytomètre de flux (suivi séquentiel des marqueurs-FACS); figures 9a à 9d) a indiqué en fin de culture à j70, la présence d'un contingent érythroide (30-35 % de cellules Glycophorine A +), mono-macrophagique (3-4 % de CD14+) et beaucoup de granuleux (autour de 60% de CD15+). • (5) Les cellules présentes dans la culture étaient uniquement des cellules transduites comme en ont attesté les images de microscopie confocale (figures 10a, 10b & 10c). L'analyse FACS a confirmé la présence d'un marquage CD24 sur plus de 65% des cellules. Enfin, les tests moléculaires (PCR et RT-PCR) analysant le gène d'intérêt dans son contexte rétroviral, ont confirmé la transmission et l'intégration du transgène. • (6) Enfin, de manière tout à fait surprenante et devant l'aspect particulier des cultures à long terme, où était apparu un contingent de superbes petites cellules réfringentes semi-adhérentes aux cellules « mésenchymateuses » (figure 8b), un marquage CD34+ a été retrouvé. Celui-ci a été constaté tant au niveau du microscope confocal (figures 11 a et 11 b) qu'au niveau de analyse par cytométrie de flux.

[5] = system: cellules primaires de moelle osseuse de patients FA-A; assay: CFU count in bone marrow cell cultures; details: avec Nac
From the text: as §9, §2

[6] = j70, transduced cells, NAC-conditioned, FACS

Structure (SMILES): CC(=O)N[C@@H](CS)C(=O)O [NAC, N-acétylcystéine]
- mortalité ([1]; avec Nac, Hypoxie, NI): 8%
- mortalité ([1]; avec Nac, Normoxie, NI): 31%
- Numération ([1]; #4 Alex, 200 x 10E3 at start, avec Nac, Normoxie, J20, NI): Néant
- Nombre de cellules ([1]; Patient #2, 200 x 10^E3 cells j0, Hypoxie 1 NAC /FICD, FICD-transduced): 170
- Nombre de cellules ([1]; Patient #2, 200 x 10^E3 cells j0, Hypoxie + NAC, NI): 104
- Nombre de cellules ([1]; Patient #2, 200 x 10^E3 cells j0, Standard PO2 + NAC, NI): 60
- Nombre de cellules ([1]; Patient #2, 200 x 10^E3 cells j0, j 20, cell under head Hypoxie 1 NAC /FICD (row shifted)): 70
- Nombre de cellules ([1]; Patient #2, 200 x 10^E3 cells j0, j20, cell under head Hypoxie + NAC (row shifted)): 0
- Nombre de cellules ([1]; Patient #2, 1000 x 10^E3 cells j0, Hypoxie + NAC, NI): 110
- Nombre de cellules ([1]; Patient #2, 1000 x 10^E3 cells j0, Standard PO2 + NAC, NI): 63
- nombre des colonies ([2]; Figure 12, cells plated 36 hours after thawing, compounds present immediately, unconditioned cells gave no colony): plusieurs dizaines
- nature des colonies obtenues ([2]; Figure 13, same conditions as Figure 12): à la fois BFU-E et CFU-GM
- cellules infectées (transduction par un gène marqueur GFP) [3]: 2-5%
- durée de maintien des cultures cellulaires [3]: une quinzaine de jours
- cellules ne prenant ni l'annexine ni l'IP ([4]; LTC over 70 days, transduced cells, NAC 1 mM and hypoxia for the first 28 days, flow cytometry): 70%
- état des cultures de cellules non transduites ([4]; from the third week, any sample, non-transduced wells cultured in parallel with NAC): débris anucléés
- cellules CD34 ([4]; j5 of culture, transduced cells, NAC-conditioned): aucune cellule CD34 n'était détectée
- diamètre moyen des cellules ([4]; j70 (5 at j1), transduced cells, NAC-conditioned, confocal and FACS): 10 microns
- CD14+ [4, 6]: 3-4%
- CD15+ [4, 6]: ~60%
- cellules Glycophorine A + [4, 6]: 30-35%
- contingent CD34+ ([4]; j70 of culture, transduced cells, NAC-conditioned, flow cytometry): 7%
- marquage CD24 ([4]; transduced cells, NAC-conditioned, FACS): > 65%
- Culture à long terme (duration) ([4]; transduced cells, NAC-conditioned, mitoses and myeloid precursors seen): 70 jours
- CFUs ([5]; #3 Alex, Hypoxie, J5): 29
- CFUs ([5]; #3 Alex, Hypoxie, J9): 11
- CFUs ([5]; #3 Alex, Normoxie, J5): 8
- CFUs ([5]; #3 Alex, Normoxie, J9): 1
- CFUs/NI ([5]; #4 Alex, Hypoxie, J6): 28
- CFUs/3B5 ([5]; #4 Alex, Hypoxie, J6, transduced): 75
- CFUs/3B5 ([5]; #4 Alex, Hypoxie, J14, 3B5-transduced): 20
- CFUs/NI ([5]; #4 Alex, Hypoxie, J14): 0
- CFUs ([5]; #4 Alex, Normoxie, J6): 19

Structure (SMILES): COc1ccc(CN2CCNCC2)c(OC)c1OC [Vastarel, Trimétazidine di-chlorhydrate]
- Numération ([1]; #5 Javler, 1000x10E3 at start, Vastarel, Hypoxie, J16, 4B3-transduced): Néant
- Numération ([1]; #5 Javler, 1000x10E3 at start, Vastarel, Hypoxie, J23, 3B5-transduced): Néant
- Numération ([1]; #5 Javler, 1000x10E3 at start, Vastarel, Hypoxie, J23, 4B3-transduced): Néant
